Here are results for 6 compounds from ChEMBL document CHEMBL5131444, “Essential structure of orexin 1 receptor antagonist YNT-707: Conversion of the 16-cyclopropylmethyl group to the 16-sulfonamide group in d-nor-nalfurafine derivatives” (Bioorg Med Chem Lett, 2022).

The target in experiment [1] is T1, Orexin/Hypocretin receptor type 1 (Homo sapiens, UniProt O43613).
T1 sequence (O43613 whole entry): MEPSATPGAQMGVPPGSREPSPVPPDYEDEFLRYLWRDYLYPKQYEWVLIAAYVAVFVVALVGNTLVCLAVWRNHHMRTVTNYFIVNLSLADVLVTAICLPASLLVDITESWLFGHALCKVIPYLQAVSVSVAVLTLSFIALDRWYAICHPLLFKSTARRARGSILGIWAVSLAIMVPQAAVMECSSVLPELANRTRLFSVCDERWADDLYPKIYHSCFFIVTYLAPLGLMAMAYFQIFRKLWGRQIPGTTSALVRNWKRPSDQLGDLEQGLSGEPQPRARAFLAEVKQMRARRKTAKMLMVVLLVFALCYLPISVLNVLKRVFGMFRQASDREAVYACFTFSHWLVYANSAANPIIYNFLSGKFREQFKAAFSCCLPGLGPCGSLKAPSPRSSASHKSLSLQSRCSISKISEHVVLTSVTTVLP
Nature of the experiment: Antagonist activity at OX1R (unknown origin) by cell-based calcium assay. Type of experiment: functional.

The target in another experiment is T2, Orexin receptor type 2 (Homo sapiens, UniProt O43614).
T2 sequence (O43614 whole entry): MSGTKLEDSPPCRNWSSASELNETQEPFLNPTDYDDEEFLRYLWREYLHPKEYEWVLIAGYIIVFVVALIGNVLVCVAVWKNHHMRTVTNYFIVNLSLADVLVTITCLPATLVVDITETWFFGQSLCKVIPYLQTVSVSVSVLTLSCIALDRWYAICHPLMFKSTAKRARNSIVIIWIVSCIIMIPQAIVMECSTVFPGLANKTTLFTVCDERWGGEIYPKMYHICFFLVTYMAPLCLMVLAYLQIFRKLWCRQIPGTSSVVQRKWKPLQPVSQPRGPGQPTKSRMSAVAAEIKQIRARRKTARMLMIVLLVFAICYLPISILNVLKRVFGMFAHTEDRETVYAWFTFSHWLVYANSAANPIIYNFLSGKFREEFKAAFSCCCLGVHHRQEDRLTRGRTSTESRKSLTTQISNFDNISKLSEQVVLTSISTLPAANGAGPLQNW
As to the kind of experiment: Antagonist activity at OX2R (unknown origin) by cell-based calcium assay.

The term Ki denotes a measure of affinity in units of concentration, obtained from inhibition or displacement. One may read the IC50 as the concentration that gives 50% inhibition. On to `COc1ccc2c3c1O[C@H]1[C@H](N(C)C(=O)/C=C/c4ccoc4)CC[C@@]4(O)[C@@H](C2)N(S(=O)(=O)c2ccccc2)CC[C@]314`, for which the Ki in experiment [1] is 16.8 nM. The IC50 at Orexin receptor type 2 is more than 10000 nM.
For the compound `COc1ccc2c3c1O[C@H]1[C@H](N(C)C(=O)/C=C/c4ccoc4)CC[C@@]4(O)[C@@H](C2)N(S(=O)(=O)c2ccccc2N(C)C)CC[C@]314`, the inhibitory constant (Ki) came out at 4.75 nM in experiment [1] and 1300 nM at Orexin receptor type 2.
With `COc1ccc2c3c1O[C@H]1[C@H](N(C)C(=O)/C=C/c4ccoc4)CC=C4[C@@H](C2)N(S(=O)(=O)c2ccccc2)CC[C@]431`, in experiment [1], the Ki came to 2.34 nM. Moreover, the 50% inhibitory concentration (IC50) at Orexin receptor type 2 is more than 10000 nM.
The corresponding values for `COc1ccc2c3c1O[C@H]1[C@H](N(C)C(=O)/C=C/c4ccoc4)CC[C@H]4[C@@H](C2)N(S(=O)(=O)c2ccccc2)CC[C@@]341` are 23.6 nM and more than 10000 nM.
The corresponding values for `COc1ccc2c3c1O[C@H]1[C@H](N(C)C(=O)/C=C/c4ccoc4)CC[C@H]4[C@@H](C2)N(S(=O)(=O)c2ccccc2N(C)C)CC[C@@]341` are 53.5 nM and more than 10000 nM.
The corresponding values for `COc1ccc2c3c1O[C@H]1[C@H](N(C)C(=O)/C=C/c4ccoc4)CC=C4[C@@H](C2)N(S(=O)(=O)c2ccccc2N(C)C)CC[C@]431` are 8.82 nM and more than 10000 nM.
